Source: ChEMBL document CHEMBL5465560, “Selectivity Literature for EUbOPEN Chemogenomic Library” (2024)

What was measured:
[1] = target: T1, Prostaglandin G/H synthase 2 (Homo sapiens) (UniProt P35354); experiment: Selectivity interaction (Safety Panel 44tm (Eurofins)) EUB0000162b PTGS2; details: at 10 µM
T1 sequence (whole entry): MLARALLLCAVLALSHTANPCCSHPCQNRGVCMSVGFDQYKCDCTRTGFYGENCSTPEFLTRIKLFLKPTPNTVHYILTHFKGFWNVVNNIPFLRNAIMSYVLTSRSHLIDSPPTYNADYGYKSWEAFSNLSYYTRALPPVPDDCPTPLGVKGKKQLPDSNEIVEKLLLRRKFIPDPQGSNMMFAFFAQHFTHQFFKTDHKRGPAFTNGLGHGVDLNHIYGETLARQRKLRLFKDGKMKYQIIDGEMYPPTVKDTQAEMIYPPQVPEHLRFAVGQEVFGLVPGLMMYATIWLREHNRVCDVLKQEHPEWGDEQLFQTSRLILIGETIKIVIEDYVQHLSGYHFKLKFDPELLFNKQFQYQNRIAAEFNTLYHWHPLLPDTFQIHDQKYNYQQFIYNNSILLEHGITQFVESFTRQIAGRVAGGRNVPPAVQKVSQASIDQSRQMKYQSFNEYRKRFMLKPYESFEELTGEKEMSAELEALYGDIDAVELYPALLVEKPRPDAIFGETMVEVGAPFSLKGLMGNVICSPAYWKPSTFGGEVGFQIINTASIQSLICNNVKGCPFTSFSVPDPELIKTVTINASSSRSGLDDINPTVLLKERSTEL

[2] = target: T2, Serine/threonine-protein kinase D2 (Homo sapiens) (UniProt Q9BZL6); experiment: Selectivity interaction (SelectScreen profiling (Invitrogen)) EUB0000607a PRKD2; details: at 2 µM
T2 sequence (whole entry): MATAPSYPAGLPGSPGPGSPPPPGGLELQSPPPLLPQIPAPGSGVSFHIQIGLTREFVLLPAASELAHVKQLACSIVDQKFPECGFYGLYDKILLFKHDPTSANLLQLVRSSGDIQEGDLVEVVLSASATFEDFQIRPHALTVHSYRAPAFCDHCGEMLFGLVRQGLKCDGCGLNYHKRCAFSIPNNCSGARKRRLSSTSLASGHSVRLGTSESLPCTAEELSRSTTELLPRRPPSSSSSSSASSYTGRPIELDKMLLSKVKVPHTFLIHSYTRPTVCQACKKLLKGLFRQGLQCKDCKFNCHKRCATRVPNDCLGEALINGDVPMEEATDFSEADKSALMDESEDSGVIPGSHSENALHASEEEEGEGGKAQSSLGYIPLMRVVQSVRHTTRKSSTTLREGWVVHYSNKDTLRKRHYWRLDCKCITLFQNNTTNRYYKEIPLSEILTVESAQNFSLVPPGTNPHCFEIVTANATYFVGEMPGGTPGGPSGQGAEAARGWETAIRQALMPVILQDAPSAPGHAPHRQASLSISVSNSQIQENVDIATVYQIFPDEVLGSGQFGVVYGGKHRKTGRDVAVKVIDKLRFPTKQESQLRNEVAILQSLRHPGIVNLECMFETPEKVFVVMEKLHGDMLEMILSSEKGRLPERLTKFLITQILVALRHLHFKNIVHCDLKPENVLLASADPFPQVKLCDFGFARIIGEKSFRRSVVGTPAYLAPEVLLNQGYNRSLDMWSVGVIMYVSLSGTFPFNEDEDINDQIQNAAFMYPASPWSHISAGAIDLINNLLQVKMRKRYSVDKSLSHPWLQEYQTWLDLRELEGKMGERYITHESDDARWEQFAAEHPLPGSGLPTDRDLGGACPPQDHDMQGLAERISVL

[3] = target: T3, Myosin-IIIb (Homo sapiens) (UniProt Q8WXR4); experiment: Selectivity interaction (KinomeScan (DiscoverX)) EUB0000666a MYO3B; details: at 10 µM
T3 sequence (whole entry): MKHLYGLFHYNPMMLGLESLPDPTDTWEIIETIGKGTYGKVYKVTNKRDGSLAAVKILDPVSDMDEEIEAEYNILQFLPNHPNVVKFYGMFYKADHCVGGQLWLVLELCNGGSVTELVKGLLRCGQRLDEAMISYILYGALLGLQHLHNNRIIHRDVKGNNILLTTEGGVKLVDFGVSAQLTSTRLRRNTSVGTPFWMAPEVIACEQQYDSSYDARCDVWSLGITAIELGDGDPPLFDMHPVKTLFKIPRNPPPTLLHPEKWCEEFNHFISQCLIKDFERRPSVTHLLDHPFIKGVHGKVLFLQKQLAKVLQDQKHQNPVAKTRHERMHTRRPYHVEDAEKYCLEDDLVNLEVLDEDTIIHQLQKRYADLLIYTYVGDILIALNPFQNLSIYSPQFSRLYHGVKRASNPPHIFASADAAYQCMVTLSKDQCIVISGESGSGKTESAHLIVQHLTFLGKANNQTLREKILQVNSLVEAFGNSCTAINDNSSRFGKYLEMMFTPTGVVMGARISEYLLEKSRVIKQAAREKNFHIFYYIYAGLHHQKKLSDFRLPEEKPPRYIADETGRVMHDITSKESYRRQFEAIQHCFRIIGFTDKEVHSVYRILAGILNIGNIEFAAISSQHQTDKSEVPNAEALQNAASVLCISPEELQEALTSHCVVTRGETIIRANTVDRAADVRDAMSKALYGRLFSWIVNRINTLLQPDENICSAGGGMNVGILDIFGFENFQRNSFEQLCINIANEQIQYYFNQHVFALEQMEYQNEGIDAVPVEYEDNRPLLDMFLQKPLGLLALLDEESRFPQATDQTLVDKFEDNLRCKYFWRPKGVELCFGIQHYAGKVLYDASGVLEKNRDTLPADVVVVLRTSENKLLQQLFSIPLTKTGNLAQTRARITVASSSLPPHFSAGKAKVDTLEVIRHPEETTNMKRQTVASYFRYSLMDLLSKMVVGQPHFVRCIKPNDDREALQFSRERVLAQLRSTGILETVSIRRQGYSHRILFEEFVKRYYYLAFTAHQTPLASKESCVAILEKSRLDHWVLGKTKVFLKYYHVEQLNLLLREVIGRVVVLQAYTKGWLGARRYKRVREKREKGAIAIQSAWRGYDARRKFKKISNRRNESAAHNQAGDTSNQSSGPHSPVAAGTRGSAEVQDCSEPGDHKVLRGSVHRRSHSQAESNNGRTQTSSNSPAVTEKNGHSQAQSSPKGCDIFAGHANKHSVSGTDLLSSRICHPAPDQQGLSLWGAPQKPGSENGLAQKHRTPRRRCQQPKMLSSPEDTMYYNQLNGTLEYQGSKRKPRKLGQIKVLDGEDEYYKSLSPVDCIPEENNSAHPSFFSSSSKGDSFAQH

[4] = target: Casein kinase II subunit alpha' (Homo sapiens) (UniProt P19784); experiment: Selectivity interaction (Kinase panel (DSF assay)) EUB0001558a CSNK2A2
Casein kinase II subunit alpha' (Homo sapiens), sequence (P19784 whole entry, looked up): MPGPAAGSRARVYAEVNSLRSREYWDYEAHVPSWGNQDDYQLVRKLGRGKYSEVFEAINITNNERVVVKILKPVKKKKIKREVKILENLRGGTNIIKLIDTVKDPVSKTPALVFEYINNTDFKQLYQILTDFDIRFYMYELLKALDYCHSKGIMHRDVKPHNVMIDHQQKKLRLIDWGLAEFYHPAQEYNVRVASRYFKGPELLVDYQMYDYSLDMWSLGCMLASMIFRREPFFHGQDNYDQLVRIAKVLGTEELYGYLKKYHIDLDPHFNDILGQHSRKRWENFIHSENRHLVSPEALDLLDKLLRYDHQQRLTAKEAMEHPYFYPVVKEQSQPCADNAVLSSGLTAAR

## CN(C)C(=O)Cn1cc(-c2ccc(-c3cncc4ccccc34)cc2)cn1
[1]
  % of control: 81%

## CNC(=O)Nc1ccc(-c2nc(N3CC4CCC(C3)O4)c3cnn(C4CCC5(CC4)OCCO5)c3n2)cc1
[2]
  % of inhibition: 1%

## O=C(NOC[C@H](O)CO)c1ccc(F)c(F)c1Nc1ccc(I)cc1F
[3]
  % of control: 99%

## CC(C)(O)[C@H](F)CN1Cc2cc(NC(=O)c3cnn4cccnc34)c(N3CCOCC3)cc2C1=O
[4]
  dTM: 0.1 K
